Laboratory results taken from ChEMBL document CHEMBL1201862, “PubChem BioAssay data set” (2004).
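Dose response: 5 concentrations. Exposure: 48 h. Format: 96-well plates. Endpoint: linear interpolation; highest concentration if not reached. GI50 = concentration required for 50% inhibition of growth.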 Activity calls are given as the source filed them. Cut-off read from the data, not from the text of the source: active = GI50 up to about 1.1 µM and inactive = higher.

Assays:
Assay in all cases: NCI-60 cell line screen, 48 h
IGROV-1 = system: IGROV-1
RPMI-8226 = system: RPMI-8226
HL-60 = system: HL-60
RXF 393 = system: RXF 393
UO-31 = system: UO-31
SNB-19 = system: SNB-19
MOLT-4 = system: MOLT-4
SNB-75 = system: SNB-75
XF498 = system: XF498
SK-MEL-5 = system: SK-MEL-5
HCT-116 = system: HCT-116
SK-OV-3 = system: SK-OV-3
SF-268 = system: SF-268
RXF 631 = system: RXF 631
HCT-15 = system: HCT-15
LOX IMVI = system: LOX IMVI
SN12C = system: SN12C
786-0 = system: 786-0
Malme-3M = system: Malme-3M
SF-295 = system: SF-295
HOP-18 = system: HOP-18
SK-MEL-2 = system: SK-MEL-2
UACC-62 = system: UACC-62
M19-MEL = system: M19-MEL
OVCAR-3 = system: OVCAR-3
DLD-1 = system: DLD-1
KM-20L2 = system: KM-20L2
OVCAR-5 = system: OVCAR-5
SR = system: SR
TK-10 = system: TK-10
CAKI-1 = system: CAKI-1
DMS-114 = system: DMS-114
SK-MEL-28 = system: SK-MEL-28
LXFL 529 = system: LXFL 529
HT-29 = system: HT-29
ACHN = system: ACHN
HOP-62 = system: HOP-62
EKVX = system: EKVX
KM12 = system: KM12
NCI-H460 = system: NCI-H460
SW-620 = system: SW-620
K562 = system: K562
NCI-H522 = system: NCI-H522
NCI-H23 = system: NCI-H23
SF-539 = system: SF-539
UACC-257 = system: UACC-257
A549 = system: A549
SNB-78 = system: SNB-78
M14 = system: M14
HOP-92 = system: HOP-92
COLO 205 = system: COLO 205
A498 = system: A498
U-251 = system: U-251
DMS-273 = system: DMS-273
HCC 2998 = system: HCC 2998
CCRF-CEM = system: CCRF-CEM
NCI-H226 = system: NCI-H226
OVCAR-8 = system: OVCAR-8
OVCAR-4 = system: OVCAR-4

## CCCCCCCC(=O)OCC1OC(OC)C(NC(=O)N(CCCl)N=O)C(O)C1O (stereo not drawn)
IGROV-1
  GI50: 21.7 µM (inactive)
RPMI-8226
  GI50: 16.3 µM (inactive)
HL-60
  GI50: 4.14 µM (inactive)
RXF 393
  GI50: 16.1 µM (inactive)
UO-31
  GI50: 17.6 µM (inactive)
SNB-19
  GI50: 14.5 µM (inactive)
MOLT-4
  GI50: 3.05 µM (inactive)
SNB-75
  GI50: 4.72 µM (inactive)
XF498
  GI50: 10.2 µM (inactive)
SK-MEL-5
  GI50: 15.1 µM (inactive)
HCT-116
  GI50: 3.22 µM (inactive)
SK-OV-3
  GI50: 28.5 µM (inactive)
SF-268
  GI50: 2.15 µM (inactive)
RXF 631
  GI50: 2.48 µM (inactive)
HCT-15
  GI50: 3.27 µM
LOX IMVI
  GI50: 0.908 µM (active)
SN12C
  GI50: 7.67 µM (inactive)
786-0
  GI50: 3.92 µM (inactive)
Malme-3M
  GI50: 13.3 µM (inactive)
SF-295
  GI50: 4.07 µM (inactive)
HOP-18
  GI50: 18.5 µM (inactive)
SK-MEL-2
  GI50: 17.1 µM (inactive)
UACC-62
  GI50: 1.86 µM (inactive)
M19-MEL
  GI50: 17.9 µM (inactive)
OVCAR-3
  GI50: 19.7 µM (inactive)
DLD-1
  GI50: 11.9 µM (inactive)
KM-20L2
  GI50: 20.8 µM (inactive)
OVCAR-5
  GI50: 26.4 µM (inactive)
SR
  GI50: 0.272 µM (active)
TK-10
  GI50: 18.5 µM (inactive)
CAKI-1
  GI50: 9.08 µM (inactive)
DMS-114
  GI50: 11.9 µM (inactive)
SK-MEL-28
  GI50: 33.3 µM (inactive)
LXFL 529
  GI50: 16.9 µM (inactive)
HT-29
  GI50: 15 µM (inactive)
ACHN
  GI50: 7.18 µM (inactive)
HOP-62
  GI50: 4.27 µM (inactive)
EKVX
  GI50: 30.6 µM (inactive)
KM12
  GI50: 9.89 µM (inactive)
NCI-H460
  GI50: 3.46 µM (inactive)
SW-620
  GI50: 4.17 µM (inactive)
K562
  GI50: 12.4 µM (inactive)
NCI-H522
  GI50: 11.2 µM (inactive)
NCI-H23
  GI50: 8.28 µM (inactive)
SF-539
  GI50: 2.64 µM (inactive)
UACC-257
  GI50: 16.1 µM (inactive)
A549
  GI50: 9.91 µM (inactive)
SNB-78
  GI50: 22.9 µM (inactive)
M14
  GI50: 8.41 µM (inactive)
HOP-92
  GI50: 1.36 µM (inactive)
COLO 205
  GI50: 14.7 µM (inactive)
A498
  GI50: 21.5 µM (inactive)
U-251
  GI50: 4.91 µM (inactive)
DMS-273
  GI50: 2.9 µM (inactive)
HCC 2998
  GI50: 14.3 µM (inactive)
CCRF-CEM
  GI50: 4.06 µM (inactive)
NCI-H226
  GI50: 15.7 µM (inactive)
OVCAR-8
  GI50: 18.2 µM (inactive)
OVCAR-4
  GI50: > 54.6 µM (inactive)

## Oc1ccc2c(c1)OCC1(O)Cc3cc(O)c(O)cc3C21 (stereo not drawn)
IGROV-1
  GI50: 39.6 µM (inactive)
RPMI-8226
  GI50: 26.5 µM (inactive)
HL-60
  GI50: 25.6 µM (inactive)
RXF 393
  GI50: 15.9 µM (inactive)
UO-31
  GI50: 60.1 µM (inactive)
SNB-19
  GI50: 28.7 µM (inactive)
MOLT-4
  GI50: 24.4 µM (inactive)
SNB-75
  GI50: 24.3 µM (inactive)
XF498
  GI50: 15.2 µM (inactive)
SK-MEL-5
  GI50: 17.7 µM (inactive)
HCT-116
  GI50: 21 µM (inactive)
SK-OV-3
  GI50: 39.9 µM (inactive)
SF-268
  GI50: 27.1 µM (inactive)
RXF 631
  GI50: 41 µM (inactive)
HCT-15
  GI50: 20.2 µM
LOX IMVI
  GI50: 19.4 µM (inactive)
SN12C
  GI50: 21.8 µM (inactive)
786-0
  GI50: 19.5 µM (inactive)
Malme-3M
  GI50: 16.9 µM (inactive)
SF-295
  GI50: > 55.5 µM (inactive)
HOP-18
  GI50: 18.3 µM (inactive)
SK-MEL-2
  GI50: 27.1 µM (inactive)
UACC-62
  GI50: 19.7 µM (inactive)
M19-MEL
  GI50: 29.1 µM (inactive)
OVCAR-3
  GI50: 16.2 µM (inactive)
DLD-1
  GI50: 17.3 µM (inactive)
KM-20L2
  GI50: 38.3 µM (inactive)
OVCAR-5
  GI50: 22.5 µM (inactive)
SR
  GI50: 30.8 µM (inactive)
TK-10
  GI50: 17.4 µM (inactive)
CAKI-1
  GI50: 18.1 µM (inactive)
DMS-114
  GI50: 26.7 µM (inactive)
SK-MEL-28
  GI50: 17.5 µM (inactive)
LXFL 529
  GI50: 18.5 µM (inactive)
HT-29
  GI50: 21.3 µM (inactive)
ACHN
  GI50: 18.2 µM (inactive)
HOP-62
  GI50: > 58.1 µM (inactive)
EKVX
  GI50: 27 µM (inactive)
KM12
  GI50: 32.7 µM (inactive)
NCI-H460
  GI50: 27.8 µM (inactive)
SW-620
  GI50: 18.6 µM (inactive)
K562
  GI50: 27.7 µM (inactive)
NCI-H522
  GI50: 21.3 µM (inactive)
NCI-H23
  GI50: 18.1 µM (inactive)
SF-539
  GI50: 17 µM (inactive)
UACC-257
  GI50: 19.9 µM (inactive)
A549
  GI50: > 57.7 µM (inactive)
SNB-78
  GI50: 14.7 µM (inactive)
M14
  GI50: 19.2 µM (inactive)
HOP-92
  GI50: 21.6 µM (inactive)
COLO 205
  GI50: 16.8 µM (inactive)
A498
  GI50: 19.1 µM (inactive)
U-251
  GI50: 18.7 µM (inactive)
DMS-273
  GI50: 35.8 µM (inactive)
HCC 2998
  GI50: 21.2 µM (inactive)
CCRF-CEM
  GI50: 29.7 µM (inactive)
NCI-H226
  GI50: > 52.5 µM (inactive)
OVCAR-8
  GI50: 21.9 µM (inactive)
OVCAR-4
  GI50: 19.1 µM (inactive)
